# “And” between values parts separate entries of the source, which are not always exact repeats. Equal entries are not always repeated. “Also recorded” adds a separate entry of the source. Where two headings read alike, the source gives them in different places.
# Experiments:
# WT AtAHAS [1] = molecular target: T1, WT AtAHAS (Arabidopsis thaliana, UniProt P17597); settings: cited from earlier work
# AtAHAS W574L mutant [2] = molecular target: T2, AtAHAS W574L mutant (Arabidopsis thaliana, UniProt P17597, W574L); type: biochemical; settings: for k3 (rate of recovery) / kiapp (apparent rate of enzyme inactivation): 160 mM pyruvate, 30 °C; for k3 (rate of recovery) / kiapp (apparent rate of enzyme inactivation) / kiapp/k3 (efficiency of accumulative inhibition): NAI = no accumulative inhibition detected
# Description: (§1) Standard assays were performed using a continuous spectrophotometric method measuring the disappearance of pyruvate. The standard buffer contained 50 mM potassium phosphate, pH 7.2, 1 mM ThDP, 10 mM MgCl2, and 10 µM FAD. The concentration of pyruvate was in the range 100–160 mM, as described in the text, methods, or figure legends.
# (§2) AtAHAS was assayed in the standard assay buffer containing 160 mM pyruvate, at 30 °C. For AtAHAS activation the progress curve corresponding to the lag-phase was fitted to Eq. (8) of Lonhienne et al.[14]. For the time dependent accumulative inhibition of AtAHAS the progress curves were fitted to Equation 9 of Lonhienne et al.[12].
# (§3) Supplementary Figure 8. Measurement of the rate constants of accumulative inhibition for WT AtAHAS and its mutants. The progress curves were fitted to the equation of accumulative inhibition (Equation 7 2). The rate constants of enzyme inactivation ( kiapp) and enzyme recovery (k3) were measured in triplicate. Source data are provided with this paper. […]
# AtAHAS S653T mutant [3] = molecular target: T3, AtAHAS S653T mutant (Arabidopsis thaliana, UniProt P17597, S653T); type: biochemical; settings: for kiapp/k3 (efficiency of accumulative inhibition) / k3 (rate of recovery) / kiapp (apparent rate of enzyme inactivation) / k3, single progress curve (Supplementary Figure 8) / kiapp, single progress curve (Supplementary Figure 8): S653T; for k3 (rate of recovery) / kiapp (apparent rate of enzyme inactivation): 160 mM pyruvate, 30 °C, ± SEM; for k3, single progress curve (Supplementary Figure 8) / kiapp, single progress curve (Supplementary Figure 8): individual replicate of triplicate
# Description: as §1, §2, §3
# AtAHAS P197L mutant [4] = molecular target: T4, AtAHAS P197L mutant (Arabidopsis thaliana, UniProt P17597, P197L); type: biochemical; settings: for k3 (rate of recovery) / kiapp (apparent rate of enzyme inactivation): 160 mM pyruvate, 30 °C; for k3 (rate of recovery) / kiapp (apparent rate of enzyme inactivation) / kiapp/k3 (efficiency of accumulative inhibition): NAI = no accumulative inhibition detected; for k3, single progress curve (Supplementary Figure 8) / kiapp, single progress curve (Supplementary Figure 8): individual replicate of triplicate
# Description: as §1, §2, §3
# AtAHAS P197T mutant [5] = molecular target: T5, AtAHAS P197T mutant (Arabidopsis thaliana, UniProt P17597, P197T); type: biochemical; settings: for k3 (rate of recovery) / kiapp (apparent rate of enzyme inactivation) / kiapp/k3 (efficiency of accumulative inhibition) / k3, single progress curve (Supplementary Figure 8) / kiapp, single progress curve (Supplementary Figure 8): P197T; for k3 (rate of recovery) / kiapp (apparent rate of enzyme inactivation): 160 mM pyruvate, 30 °C; for k3 (rate of recovery) / kiapp (apparent rate of enzyme inactivation) / kiapp/k3 (efficiency of accumulative inhibition): NAI = no accumulative inhibition detected; for k3, single progress curve (Supplementary Figure 8) / kiapp, single progress curve (Supplementary Figure 8): individual replicate of triplicate
# Description: as §1, §2, §3
# WT AtAHAS [6] = molecular target: T1, WT AtAHAS; type: biochemical; settings: for k3 (rate of recovery) / kiapp (apparent rate of enzyme inactivation): 160 mM pyruvate, 30 °C, ± SEM; for k3, single progress curve (Supplementary Figure 8) / kiapp, single progress curve (Supplementary Figure 8): individual replicate of triplicate
# Description: as §1, §2
# Supplementary Figure 8. Measurement of the rate constants of accumulative inhibition for WT AtAHAS and its mutants. The progress curves were fitted to the equation of accumulative inhibition (Equation 7 2). The rate constants of enzyme inactivation ( kiapp) and enzyme recovery (k3) were measured in triplicate. Source data are provided with this paper.
# AtAHAS W574L mutant [7] = molecular target: T2, AtAHAS W574L mutant; test: biochemical; settings: for increase in Ki / loss of affinity compared to WT: W574L vs WT
# Description: as §1
# (§4) Supplementary Figure 6. Measurement of the Ki values for WT AtAHAS and the mutants.
# (§5) The error bars represent the standard error of the mean of two independent replicates. [I] =
# (§6) inhibitor concentration. Source data are provided with this paper.
# (§7) (1 picture or pasted object on this page, not shown here)
# AtAHAS S653T mutant [8] = molecular target: T3, AtAHAS S653T mutant; test: biochemical
# Description: as §1, §4, §5, §6, §7
# AtAHAS P197L mutant [9] = molecular target: T4, AtAHAS P197L mutant; test: biochemical
# Description: as §1, §4, §5, §6, §7
# AtAHAS P197T mutant [10] = molecular target: T5, AtAHAS P197T mutant; test: biochemical
# Description: as §1, §4, §5, §6, §7
# [11] = ± standard error of the mean, ref Garcia et al.[13]
# [12] = Ki, W574L mutant, ± standard error of the mean
# [13] = Ki, S653T mutant, ± standard error of the mean
# [14] = Ki (Supplementary Figure 6), P197L, fit of % activity remaining vs [I], two independent replicates
# [15] = Ki, P197L mutant, ± standard error of the mean
# [16] = Ki (Supplementary Figure 6), P197T, fit of % activity remaining vs [I], two independent replicates
# [17] = Ki, P197T mutant, ± standard error of the mean
# [18] = individual replicate of triplicate
structure (smiles),measurement,setting,value
"CC(C)C1(C)N=C(c2nc3ccccc3cc2C(=O)O)NC1=O (stereo not shown) [IQ, imazaquin]",Ki,WT AtAHAS [1],18 µM
same,Ki,WT AtAHAS [1]; [11],18.5 ± 2 µM
same,k3 (rate of recovery),AtAHAS W574L mutant [2],NAI
same,kiapp (apparent rate of enzyme inactivation),AtAHAS W574L mutant [2],NAI
same,kiapp/k3 (efficiency of accumulative inhibition),AtAHAS W574L mutant [2],NAI
same,kiapp/k3 (efficiency of accumulative inhibition),AtAHAS S653T mutant [3],>10^11
same,k3 (rate of recovery),AtAHAS S653T mutant [3],<1e-12 min⁻¹
same,kiapp (apparent rate of enzyme inactivation),AtAHAS S653T mutant [3],0.37 ± 0.017 min⁻¹
same,"k3, single progress curve (Supplementary Figure 8)",AtAHAS S653T mutant [3],~ 0 min-1
same,"kiapp, single progress curve (Supplementary Figure 8)",AtAHAS S653T mutant [3],0.34 min⁻¹ and 0.38 min⁻¹ and 0.39 min⁻¹
same,k3 (rate of recovery),AtAHAS P197L mutant [4],<1e-12 min⁻¹
same,kiapp (apparent rate of enzyme inactivation),AtAHAS P197L mutant [4],0.26 ± 0.008 min⁻¹
same,kiapp/k3 (efficiency of accumulative inhibition),AtAHAS P197L mutant [4],>10^11
same,"k3, single progress curve (Supplementary Figure 8)",AtAHAS P197L mutant [4],~ 0 min-1
same,"kiapp, single progress curve (Supplementary Figure 8)",AtAHAS P197L mutant [4],0.25 min-1 (2×) and 0.26 min-1
same,k3 (rate of recovery),AtAHAS P197T mutant [5],<1e-12 min⁻¹
same,kiapp (apparent rate of enzyme inactivation),AtAHAS P197T mutant [5],0.27 ± 0.012 min⁻¹
same,kiapp/k3 (efficiency of accumulative inhibition),AtAHAS P197T mutant [5],>10^11
same,"k3, single progress curve (Supplementary Figure 8)",AtAHAS P197T mutant [5],~ 0 min-1
same,"kiapp, single progress curve (Supplementary Figure 8)",AtAHAS P197T mutant [5],0.29 min-1 and 0.28 min-1 (2×)
same,accumulative inhibition (in words),WT AtAHAS [6],irreversible
same,kiapp/k3 (efficiency of accumulative inhibition),WT AtAHAS [6],>10^11
same,k3 (rate of recovery),WT AtAHAS [6],<1e-12 min⁻¹
same,kiapp (apparent rate of enzyme inactivation),WT AtAHAS [6],0.86 ± 0.03 min⁻¹
same,"k3, single progress curve (Supplementary Figure 8)",WT AtAHAS [6],~ 0 min-1
same,"kiapp, single progress curve (Supplementary Figure 8)",WT AtAHAS [6],0.86 min⁻¹ and 0.92 min⁻¹ and 0.83 min⁻¹
same,Ki,AtAHAS W574L mutant [7]; [12],704 ± 58.5 µM
same,increase in Ki / loss of affinity compared to WT,AtAHAS W574L mutant [7],38 fold
same,Ki,"AtAHAS S653T mutant [8]; Ki (Supplementary Figure 6), S653T, fit of % activity remaining vs [I], two independent replicates",240 ± 25.5 µM
same,Ki,AtAHAS S653T mutant [8]; [13],240 ± 26 µM
same,increase in Ki compared to WT,AtAHAS S653T mutant [8]; S653T vs WT,more than 10 fold
same,Ki,AtAHAS P197L mutant [9]; [14],13.8 ± 1.14 µM
same,Ki,AtAHAS P197L mutant [9]; [15],13.8 ± 1.1 µM
same,Ki,AtAHAS P197T mutant [10]; [16],12.4 ± 1.83 µM
same,Ki,AtAHAS P197T mutant [10]; [17],12.4 ± 1.8 µM
"COc1cc(OC)nc(Oc2cccc(Oc3nc(OC)cc(OC)n3)c2C(=O)O)n1 [BS, bispyribac]",Ki,WT AtAHAS [1]; [11],0.041 ± 0.006 µM
same,accumulative inhibition (in words),AtAHAS W574L mutant [2],irreversible; also recorded: still can promote accumulative inhibition
same,k3 (rate of recovery),AtAHAS W574L mutant [2],<1e-12 min⁻¹
same,kiapp (apparent rate of enzyme inactivation),AtAHAS W574L mutant [2],0.03 ± 0.006 min⁻¹
same,kiapp/k3 (efficiency of accumulative inhibition),AtAHAS W574L mutant [2],>10^11
same,"k3, single progress curve (Supplementary Figure 8)",AtAHAS W574L mutant [2]; [18],~ 0 min-1
same,"kiapp, single progress curve (Supplementary Figure 8)",AtAHAS W574L mutant [2]; [18],0.043 min⁻¹ and 0.026 min⁻¹ and 0.025 min⁻¹
same,kiapp/k3 (efficiency of accumulative inhibition),AtAHAS S653T mutant [3],39
same,efficiency of accumulative inhibition (kiapp/k3) compared to WT (in words),AtAHAS S653T mutant [3]; S653T vs WT,increased
same,k3 (rate of recovery),AtAHAS S653T mutant [3],0.017 ± 0.001 min⁻¹
same,kiapp (apparent rate of enzyme inactivation),AtAHAS S653T mutant [3],0.66 ± 0.04 min⁻¹
same,"k3, single progress curve (Supplementary Figure 8)",AtAHAS S653T mutant [3],0.018 min⁻¹ and 0.019 min⁻¹ and 0.015 min⁻¹
same,"kiapp, single progress curve (Supplementary Figure 8)",AtAHAS S653T mutant [3],0.59 min⁻¹ and 0.71 min⁻¹ and 0.69 min⁻¹
same,k3 (rate of recovery),AtAHAS P197L mutant [4],0.037 ± 0.003 min⁻¹
same,kiapp (apparent rate of enzyme inactivation),AtAHAS P197L mutant [4],1.15 ± 0.09 min⁻¹
same,kiapp/k3 (efficiency of accumulative inhibition),AtAHAS P197L mutant [4],31
same,"k3, single progress curve (Supplementary Figure 8)",AtAHAS P197L mutant [4],0.043 min⁻¹ and 0.036 min⁻¹ and 0.032 min⁻¹
same,"kiapp, single progress curve (Supplementary Figure 8)",AtAHAS P197L mutant [4],1.33 min⁻¹ and 1.1 min⁻¹ and 1.03 min⁻¹
same,k3 (rate of recovery),AtAHAS P197T mutant [5],0.031 ± 0.004 min⁻¹
same,kiapp (apparent rate of enzyme inactivation),AtAHAS P197T mutant [5],1.14 ± 0.11 min⁻¹
same,kiapp/k3 (efficiency of accumulative inhibition),AtAHAS P197T mutant [5],37
same,"k3, single progress curve (Supplementary Figure 8)",AtAHAS P197T mutant [5],0.035 min-1 (2×) and 0.023 min-1
same,"kiapp, single progress curve (Supplementary Figure 8)",AtAHAS P197T mutant [5],1.09 min⁻¹ and 0.98 min⁻¹ and 1.34 min⁻¹
same,increase in efficiency of accumulative inhibition compared to WT,AtAHAS P197T mutant [5]; P197 mutant vs WT (kiapp/k3),two-fold
same,kiapp/k3 (efficiency of accumulative inhibition),WT AtAHAS [6],18
same,k3 (rate of recovery),WT AtAHAS [6],0.018 ± 0.002 min⁻¹
same,kiapp (apparent rate of enzyme inactivation),WT AtAHAS [6],0.32 ± 0.03 min⁻¹
same,"k3, single progress curve (Supplementary Figure 8)",WT AtAHAS [6],0.022 min⁻¹ and 0.018 min⁻¹ and 0.014 min⁻¹
same,"kiapp, single progress curve (Supplementary Figure 8)",WT AtAHAS [6],0.38 min⁻¹ and 0.28 min⁻¹ and 0.3 min⁻¹
same,Ki,"AtAHAS W574L mutant [7]; Ki (Supplementary Figure 6), W574L, fit of % activity remaining vs [I], two independent replicates",6.11 ± 0.988 µM
same,Ki,AtAHAS W574L mutant [7]; [12],6.1 ± 1 µM
same,increase in Ki / loss of affinity compared to WT,AtAHAS W574L mutant [7],150 fold
same,Ki,AtAHAS S653T mutant [8]; [13],0.09 ± 0.0131 µM
same,loss of affinity,AtAHAS S653T mutant [8]; S653T vs WT,~ 50%
same,Ki,AtAHAS P197L mutant [9]; [14],0.115 ± 0.0134 µM
same,Ki,AtAHAS P197L mutant [9]; [15],0.115 ± 0.013 µM
same,loss of affinity,AtAHAS P197L mutant [9]; P197L vs WT,~ 50%
same,Ki,AtAHAS P197T mutant [10]; [16],0.106 ± 0.00483 µM
same,Ki,AtAHAS P197T mutant [10]; [17],0.106 ± 0.0048 µM
same,increase in Ki / loss of affinity compared to WT,AtAHAS P197T mutant [10]; P197T vs WT,around three-fold
same,loss of affinity,AtAHAS P197T mutant [10]; P197T vs WT,~ 50%

# — article PMC9188596, “Structural basis of resistance to herbicides that target acetohydroxyacid synthase” (Nature Communications, 2022)
